Consider 1 compound from patent US20130165508A1, “METHODS AND FORMULATIONS FOR TREATING INEFFECTIVE OR DECREASED ESOPHAGAL MOTILITY” (priority 2007, published 2013).

Each structure is given as a SMILES string.

For data set [1] the following is noted: cited from earlier work.
The target in a further data set is acetylcholinesterase (Homo sapiens, UniProt P22303). The note with it: cited from earlier work.
The conditions of data set [2]: systemic dosing; cited from earlier work.
Data set [3] relates to patients with severe ineffective esophageal motility. The note with it: 50 mg oral doses, after 15 and 40 minutes; cited from earlier work.
For data set [4] the following is noted: cited from earlier work. This is another data set of the same source.
Data set [5] in a line: Expected absorption of bethanechol from ten 0.1 ml sprays with absorption enhancer. The class given is in vivo. The source says:
An exemplary method comprises treating ineffective esophageal motility while reducing or virtually eliminating an undesirable side effect, particularly a parasympathetic nervous system side effect, in a mammal in need of treatment by topically administering to the pharynx and esophagus of the mammal a therapeutically effective amount of bethanechol and an absorption enhancer to facilitate esophageal peristalsis so that the undesirable side effect, particularly the parasympathetic nervous system side effect, is reduced while maintaining the therapeutic esophageal peristaltic effect. A further exemplary method comprises delivering an amount of bethanechol of between about 3 mg and about 15 mg. A further exemplary method comprises introducing about ten 0.1 ml sprays comprising 5 mg bethanechol per ml and an absorption enhancer. Of the total 5 mg introduced, it is expected about 25 percent of the bethanechol, or about 1.25 mg, is adsorbed. The remaining 3.75 mg would proceed into the stomach and intestines, and, at about a 22 percent absorption rate would result in only about 0.8 mg bethanechol being systemically adsorbed, far below the threshold necessary to produce undesirable side effects.

The target in a further data set is T1, muscarinic M2 receptors (Homo sapiens, UniProt P08172).
T1 sequence (P08172 1-466): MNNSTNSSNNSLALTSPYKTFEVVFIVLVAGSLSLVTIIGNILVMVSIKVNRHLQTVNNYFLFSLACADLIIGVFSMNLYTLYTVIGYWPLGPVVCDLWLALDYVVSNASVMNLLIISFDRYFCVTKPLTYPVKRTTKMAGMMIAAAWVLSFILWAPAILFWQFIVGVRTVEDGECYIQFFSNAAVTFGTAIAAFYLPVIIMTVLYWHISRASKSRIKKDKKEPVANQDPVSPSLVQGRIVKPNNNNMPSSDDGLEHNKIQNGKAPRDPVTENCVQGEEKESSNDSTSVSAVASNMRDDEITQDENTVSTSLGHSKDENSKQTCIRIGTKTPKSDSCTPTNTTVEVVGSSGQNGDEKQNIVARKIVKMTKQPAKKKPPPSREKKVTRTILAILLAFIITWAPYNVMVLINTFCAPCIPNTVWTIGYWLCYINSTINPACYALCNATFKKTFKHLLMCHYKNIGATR
The note with it: cited from earlier work.

Data set [6] is described as follows: Gastrointestinal absorption of oral bethanechol. The note with it: 50 mg oral dosage at about 22 percent absorption. Format: in vivo. Here is the method:
Thus, to achieve the beneficial effects of bethanechol on esophageal motility, systemic dosages in the range of 25-50 mg are required. Further, absorption of bethanechol at these dosage levels by the stomach and lower GI tract results in systemic distribution to other areas of the body such as the urinary tract and colon. A 50 mg oral dosage, for example, is believed to be about 22 percent absorbed in the stomach and intestines, which are rich in blood supply. This would result in a systemic level of about 11 mg of bethanechol. As described herein, however, bethanechol delivered locally to the pharynx and esophagus in a form that can more easily be absorbed by the mucosal lining of the pharynx and esophagus and delivered to the muscarinic receptors, principally the M2 receptors, can provide esophageal motility benefits, as well as increased salivation, while minimizing or avoiding systemic absorption and reducing or eliminating undesirable side effects. Enhancing the reduction or elimination of undesirable side effects is the fact that the esophagus has low vascularization, thus inhibiting the systemic absorption of bethanechol.

Chain of acetylcholinesterase (P22303 32-614, species assumed): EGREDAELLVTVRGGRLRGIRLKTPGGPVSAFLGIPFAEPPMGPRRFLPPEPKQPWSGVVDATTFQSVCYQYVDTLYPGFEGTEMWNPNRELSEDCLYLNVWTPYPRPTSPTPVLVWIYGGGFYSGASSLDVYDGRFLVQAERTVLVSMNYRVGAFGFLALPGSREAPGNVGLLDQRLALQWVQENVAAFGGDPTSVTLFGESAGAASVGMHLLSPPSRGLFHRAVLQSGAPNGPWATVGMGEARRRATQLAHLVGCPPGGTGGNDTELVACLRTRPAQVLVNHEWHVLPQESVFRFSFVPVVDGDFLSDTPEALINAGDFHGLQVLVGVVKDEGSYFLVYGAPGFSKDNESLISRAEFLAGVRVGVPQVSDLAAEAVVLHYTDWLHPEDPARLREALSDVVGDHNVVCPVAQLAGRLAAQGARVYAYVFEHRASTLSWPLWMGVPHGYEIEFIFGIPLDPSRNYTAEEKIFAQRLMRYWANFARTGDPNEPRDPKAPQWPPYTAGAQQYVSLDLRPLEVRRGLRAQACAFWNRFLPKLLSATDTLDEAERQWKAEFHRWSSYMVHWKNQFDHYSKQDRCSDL

Regarding `CC(C[N+](C)(C)C)OC(N)=O` (centres unmarked) [bethanechol, 2-carbamoyloxpropyl-trimethyl-ammonium chloride], the “fraction absorbed in the stomach and intestines” value in data set [1] (50 mg oral dosage, "is believed") was “about 22%”. The “absorption by the mucosal lining of the gastrointestinal tract” value in data set [1] (in vivo) was “poorly absorbed”. Besides, the inactivation by acetylcholinesterase result at acetylcholinesterase is listed as “not inactivated by acetylcholinesterase”. For the same compound, the “undesirable side effects when provided systemically” value in data set [2] is recorded as “diarrhea, flushing, increased sweating, nausea, stomach pain, or gas, and, importantly, urinary urgency”. Also, in data set [3], the “effect on esophageal motility” value is “improve esophageal motility”. For the same compound, in data set [4], the “stability and water solubility” value was “stable, water-soluble”. Besides, the “bethanechol systemically adsorbed from the remaining 3.75 mg” value in data set [5] (remaining 3.75 mg in stomach and intestines at about 22 percent absorption rate) is given as “about 0.8 mg”. Moreover, in data set [5] (ten 0.1 ml sprays, 5 mg bethanechol per ml with absorption enhancer, total 5 mg), the “fraction of bethanechol adsorbed from the spray” value is on record as “about 25%”. Also, the “amount of bethanechol adsorbed from the spray” value in data set [5] (ten 0.1 ml sprays, total 5 mg) is given as “about 1.25 mg”. Also, the receptor selectivity result at muscarinic M2 receptors is “directly and selectively on the muscarinic M2 receptors”. The “systemic level of bethanechol” value in data set [6] is listed as “about 11 mg”.
